Each structure is given as a SMILES string.

Test [1] has as its system panel of human colorectal cell lines. In words: Luminex 200 analysis of tumor cell culture supernatants (Example 1). It is filed as cell-based. The method, then:
Human cytokine profiling. Human cell line culture supernatants were analyzed using an R&D systems Human Premixed Multi-Analyte Kit (R&D Systems, Inc., Minneapolis, MN, USA) and a Luminex 200 (RRID: SCR_018025) Instrument (LX200-XPON-RUO, Luminex Corporation, Austin, TX, USA) according to the manufacturer's instructions. Sample levels of TNF-α, 4-1BB/TNFRSF9/CD137, IL-8/CXCL8, Ferritin, IFN-β, IL-10, CCL2/JE/MCP-1, VEGF, CXCL13/BLC/BCA-1, IFN-γ, CCL20/MIP-3 α, CCL3/MIP-1 α, CCL22/MDC, CCL4/MIP-1 β, Fas Ligand/TNFSF6, IL-17/1L-17A, IL-2, BAFF/BLyS/TNFSF13B, GM-CSF, CXCLS/ENA-78, TRANCE/TNFSF11/RANK L, CXCL9/MIG, G-CSF, IFN-γ R1/CD119, VEGFR3/Flt-4, C-Reactive Protein/CRP, CXCL11/I-TAC, IL-21, CXCL14/BRAK, IL-6, Fas/TNFRSF6/CD95, TRAIL R3/TNFRSF10C, IL-4, CCL5/RANTES, PD-L1/137-H1, CCL7/MCP-3/MARC, Chitinase 3-like 1, CXCL10/IP-10/CRG-2, IL-1 μ/IL-1F2, IL-7, Prolactin, CCL8/MCP-2, TRAIL R2/TNFRSF10B, M-CSF, IL-15, Granzyme B, IFN-α, TREM-1, IL-12/1L-23 p40, TRAIL/TNFSF10, CCL11/Eotaxin, and 1L-18/1L-1F4. Quantitative analysis with 6 standards and a minimum of 50 counts per bead region was used with the Luminex to generate analyte values reported as picograms/milliliter (pg/mL). Sample concentrations less than the lower limit of detection for each particular analyte were recoded as the lower limit value divided by 10. Sample concentrations above the upper limit of detection for a particular analyte were recoded as the upper limit of detection.
A panel of human colorectal cell lines was chosen to provide a varied mutational background (TP53, KRAS, BRAF, TRK, APC, PIK3CA). Cells were treated with elraglusib at doses up to 50 μM for seventy-two hours to determine IC10, IC30, IC50, and IC70. Cytokine, chemokine, and growth factor levels were analyzed in the tumor cell culture supernatants after treatment at IC10, IC30, IC50, and IC70 for forty-eight hours using a Luminex 200 multiplexing instrument. Co-culture experiments were conducted with GFP+ SW480 colorectal cancer cells and either NK-92 natural killer cells or TALL-104 T cells at various effector/target ratios in a 48-well plate, in the presence or absence of elraglusib.

Another test concerns SW480. In words: multicolor co-culture of SW480 and TALL-104 T cells. The format is cell-based, human. An excerpt:
Multicolor immune cell co-culture experiments.
Elraglusib sensitizes tumor cells to immune-mediated cytotoxicity. […] FIG. 8A. TALL-104 cells are a human leukemic T cell line.
FIG. 1A. […] FIG. 1B. […] FIG. 1C. […] FIG. 1D. […] FIG. 1E. […] FIG. 1F.

For another test, the system named is NK-92. In words: microarray analysis. The format is cell-based, human. Particulars: 1 μM, 24 hours, vs untreated. The method, then: Microarrays. A total of 0.5×10^6 tumor cells (HCT-116, HT-29, KM12C) were plated in a 6-well plate and allowed to adhere overnight before 24-hour treatment, as indicated. Then, 1×10^6 immune cells (NK92, TALL-104) were plated and treated with elraglusib as indicated for twenty-four h. RNA was isolated from cell pellets in batches of six using a RNeasy Plus Mini Kit (Cat #74134, Qiagen, Hilden, Germany). Acceptable RNA concentration and quality were verified with Nanodrop and Bioanalyzer measurements. GeneChip™ Human Transcriptome Array 2.0 assays were conducted according to manufacturer instructions in two batches using randomized samples to limit batch effects (Cat #902162, Applied Biosystems, Waltham, MA, USA). Applied Biosystems Transcriptomic Analysis Console (TAC) software (RRID: SCR_016519) was used to calculate fold changes in gene expression relative to the untreated control cells. Values were considered statistically significant for p values<0.05.
Microarray analysis was used to obtain insights into gene expression changes in immune cell lines post-GSK-3 inhibition with elraglusib. Immune cell lines (TALL-104, NK-92) were treated with elraglusib at IC50 concentrations or DMSO as vehicle control for twenty-four hours and treated versus untreated samples were compared in triplicate using microarray analysis. FIG. 11. Results were calculated using a fold-change (FC) cutoff of >1.5, <−1.5, and a minimum p-value of <0.05. NK-92 cells had sixty-one differentially expressed genes post-treatment (FIG. 3D). the inventors observed an increase in genes that promote immune cell proliferation (TNFSF14, RAB38) and control immune cell adhesion and migration (WNK1) post-elraglusib treatment.
TABLE 11 description. NK-92 immune cell microarray analysis. NK-92 immune cells were treated with 1 μM elraglusib for 24 hours and treated versus untreated control samples were compared in triplicate via microarray analysis (N=3).

The next test has as its system HCT 116 GFP+ cells. In words: single-color GFP+ immune cell co-culture.

Experimental for HCT 116 GFP+ cells: Single-color immune cell co-culture experiments. A total of 5000 HT-29 GFP+ or HCT 116 GFP+ cells were plated per well in a clear-bottom, black-walled 96-well tissue culture plate and were allowed to adhere overnight. Cells were subsequently treated with DMSO, 5 μM elraglusib, or 5000 TALL-104 or NK-92 cells (for an effector-to-tumor ratio of 1:1) for forty-eight hours. Nine images were taken per well at 10× magnification using a Molecular Devices ImageXpress® Confocal HT.ai High-Content Imaging System and quantified for the number of GFP+ objects using the MetaXpress (RRID: SCR_016654) software (Molecular Devices, San Jose, CA, USA). 40× images were also taken at twenty-four hours for representative images of cellular morphology changes.
To determine if pyroptosis-mediated immune cell activity played a role in the co-culture results, the inventors examined higher-power co-culture images for evidence of pyroptosis.

For `Cn1cc(C2=C(c3coc4ccc(F)cc34)C(=O)NC2=O)c2cc3c(cc21)OCO3` [elraglusib], the “macrophage colony-stimulating factor (M-CSF)” value in test [1] is on record as “decrease”. For the same molecule, the VEGF in supernatant entry in test [1] (IC10, IC30, IC50, IC70 for forty-eight hours) is “decreased”. Besides, the Overall cytokine levels entry in test [1] (in response to increasing doses) is “decreasing trend”. For the same molecule, the “CXCL14 (BRAK) in supernatant” value in test [1] (with increasing doses) is reported as “increase”. The “dead cells out of total cells” value with SW480 (co-culture with TALL-104, 5 μM, 24 hours, E:T 1:1, normalized, without drug approximately 45%) stood at 60%. Also, the “dead cells out of total cells” value in the test on SW480 (co-culture with TALL-104, 10 μM, 24 hours, E:T 1:1, normalized, without drug approximately 45%) came to 65%. In the test on SW480 (tumor cells pre-treated 5 μM for twenty-four hours, then co-cultured with TALL-104), the “dead cells out of total cells” value stood at 65%. For the same molecule, in the test on NK-92, the “ITGB8 Fold Change” value is reported as −1.53, the “MIR186 Fold Change” value is on record as −1.52, the “NAP1L1 Fold Change” value was −1.51 and the “RAB38 Fold Change” value worked out at 1.65. Also, in the test with NK-92, the “RNY5 Fold Change” value is given as 3.32, the “S100A12 Fold Change” value was −1.78, the “TNFSF14 Fold Change” value worked out at 1.5 and the “WNK1 Fold Change” value was 1.5. The tumor cell death entry in the test on HCT 116 GFP+ cells (5 μM elraglusib and NK-92 vs drug-only or immune-cell-only) is “increased tumor cell death”. Besides, the “GFP+ cells per low-powered field” value with HCT 116 GFP+ cells (5 μM elraglusib only vs DMSO only, forty-eight hours) is recorded as “significant decrease”. Also, the “number of GFP+ cells per field” value with HCT 116 GFP+ cells (TALL-104 and 5 μM elraglusib vs TALL-104) is listed as “significant decrease”. For the same molecule, the pyroptotic events entry in the test on HCT 116 GFP+ cells (co-culture with TALL-104, 5 μM elraglusib) is “significant increase”.

The values are drawn from patent publication US20240041830A1, “CIRCULATING BIOMARKERS OF RESPONSE TO PD-1/PD-L1 BLOCKADE AND GSK-3 INHIBITION” (Brown University, priority 2022, published 2024).
